The target of assay [1] is GABAA α3β3γ2 (Rattus norvegicus, UniProt P18508+P20236+P63079). The assay is described as follows: voltage clamp of Xenopus oocytes, potentiation of GABA-induced currents. The class given is cell-based.
Assay [2] has as its target GABAA α3β2γ2 (Rattus norvegicus, UniProt P18508+P20236+P63138). The description is as above. The assay is classed as cell-based.

Chain of GABAA α3β3γ2 (P20236 29-493): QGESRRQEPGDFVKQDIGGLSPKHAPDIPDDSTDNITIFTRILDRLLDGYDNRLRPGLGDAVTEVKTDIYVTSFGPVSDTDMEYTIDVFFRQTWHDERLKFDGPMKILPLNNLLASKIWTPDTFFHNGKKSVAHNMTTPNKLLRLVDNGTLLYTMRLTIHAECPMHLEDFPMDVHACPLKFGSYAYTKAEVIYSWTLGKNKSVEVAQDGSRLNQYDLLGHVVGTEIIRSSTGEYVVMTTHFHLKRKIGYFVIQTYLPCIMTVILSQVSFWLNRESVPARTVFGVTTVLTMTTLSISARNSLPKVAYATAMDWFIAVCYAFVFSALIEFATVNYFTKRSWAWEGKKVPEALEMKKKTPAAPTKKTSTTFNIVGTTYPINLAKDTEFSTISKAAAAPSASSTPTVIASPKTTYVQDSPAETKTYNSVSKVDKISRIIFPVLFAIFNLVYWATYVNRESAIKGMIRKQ
Chain of GABAA α3β3γ2 (P63079 26-473): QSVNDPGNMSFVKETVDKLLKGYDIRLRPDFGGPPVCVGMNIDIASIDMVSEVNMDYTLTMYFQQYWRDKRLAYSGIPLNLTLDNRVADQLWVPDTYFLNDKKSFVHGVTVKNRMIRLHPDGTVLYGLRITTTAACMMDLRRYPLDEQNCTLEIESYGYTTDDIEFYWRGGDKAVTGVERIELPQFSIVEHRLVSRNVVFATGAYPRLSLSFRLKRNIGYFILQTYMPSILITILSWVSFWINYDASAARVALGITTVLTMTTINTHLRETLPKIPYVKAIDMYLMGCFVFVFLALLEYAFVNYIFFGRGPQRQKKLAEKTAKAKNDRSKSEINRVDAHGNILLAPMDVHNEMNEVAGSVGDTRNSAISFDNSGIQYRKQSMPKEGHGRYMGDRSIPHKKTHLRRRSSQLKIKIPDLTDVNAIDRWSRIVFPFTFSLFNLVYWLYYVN
Chain of GABAA α3β3γ2 (P18508 39-466): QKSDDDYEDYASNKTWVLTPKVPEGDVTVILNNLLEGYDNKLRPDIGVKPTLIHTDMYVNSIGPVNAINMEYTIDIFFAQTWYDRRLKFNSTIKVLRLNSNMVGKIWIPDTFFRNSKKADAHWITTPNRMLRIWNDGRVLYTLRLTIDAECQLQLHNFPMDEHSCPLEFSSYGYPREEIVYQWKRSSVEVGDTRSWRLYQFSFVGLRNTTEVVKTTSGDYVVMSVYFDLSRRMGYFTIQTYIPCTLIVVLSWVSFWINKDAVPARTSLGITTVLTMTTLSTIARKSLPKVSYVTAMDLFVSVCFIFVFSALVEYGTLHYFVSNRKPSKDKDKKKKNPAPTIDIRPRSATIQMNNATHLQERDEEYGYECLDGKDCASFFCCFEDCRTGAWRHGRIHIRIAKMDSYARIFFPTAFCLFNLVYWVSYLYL
Chain of GABAA α3β2γ2 (P20236 29-493): as the sequence (P20236 29-493) above
Chain of GABAA α3β2γ2 (P63138 26-474): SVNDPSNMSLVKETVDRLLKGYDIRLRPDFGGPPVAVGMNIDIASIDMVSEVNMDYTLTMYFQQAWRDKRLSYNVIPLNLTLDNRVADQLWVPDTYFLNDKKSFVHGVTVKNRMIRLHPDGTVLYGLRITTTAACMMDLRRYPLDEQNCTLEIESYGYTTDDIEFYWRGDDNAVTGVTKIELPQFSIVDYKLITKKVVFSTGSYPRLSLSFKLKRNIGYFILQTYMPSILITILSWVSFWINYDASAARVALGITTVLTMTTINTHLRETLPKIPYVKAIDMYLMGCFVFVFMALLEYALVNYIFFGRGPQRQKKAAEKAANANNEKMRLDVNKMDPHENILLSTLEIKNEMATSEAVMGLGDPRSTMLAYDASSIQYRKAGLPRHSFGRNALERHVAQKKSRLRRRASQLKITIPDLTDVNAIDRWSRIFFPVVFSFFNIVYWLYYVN
Chain of GABAA α3β2γ2 (P18508 39-466): as the sequence (P18508 39-466) above

`CCOC(=O)c1cc(NC(=O)N(c2ccccc2)c2ccccc2)c2c(Cl)cc(Cl)cc2n1` [DCUK-OEt, 5,7-dichloro-4-([diphenylcarbamoyl]amino) quinoline-2-ethyl carboxylate]: the EC50 (usually the concentration at which the effect is half-maximal) in assay [1] turned out to be 130 nM; in assay [2], 380 nM.

For the origin of these results see paper doi:10.1101/2020.07.10.197525v1 (biorxiv, 2020).
